Data published in ChEMBL document CHEMBL6134867, “Design and Synthesis of FR-β Targeting Chimeric Molecules for Reprogramming Tumor-Associated Macrophages Using 6-Substituted Pyrrolo[2,3-d]pyrimidines as Targeting Ligands” (J Med Chem, 2025).
Active and inactive are the calls of the source. The calls are words filed in the database; no cut-off is given here.

How the values were obtained:
BMDM [1] = assay: Induction of macrophage repolarization in FR-beta expressing IL-4 differentiated M2 phenotype mouse BMDM cells assessed as reprogramming to M1 phenotype by measuring upregulation of TLR7 expression at 10 nM incubated for 24 hrs by western blot analysis; assay type: functional, cell-based
BMDM [2] = assay: Induction of macrophage repolarization in FR-beta expressing IL-4 differentiated M2 phenotype mouse BMDM cells assessed as reprogramming to M1 phenotype by measuring upregulation of MyD88 expression at 10 nM incubated for 24 hrs by western blot analysis; assay type: functional, cell-based
BMDM [3] = assay: Induction of macrophage repolarization in FR-beta expressing IL-4 differentiated M2 phenotype mouse BMDM cells assessed as reprogramming to M1 phenotype by measuring downregulation of CD206 expression at 10 nM incubated for 24 hrs by western blot analysis; assay type: functional, cell-based
BMDM [4] = assay: Induction of macrophage repolarization in FR-beta expressing IL-4 differentiated M2 phenotype mouse BMDM cells assessed as reprogramming to M1 phenotype by measuring downregulation of Arg1 expression at 10 nM incubated for 24 hrs by western blot analysis; assay type: functional, cell-based
BMDM [5] = assay: Induction of macrophage repolarization in FR-beta expressing IL-4 differentiated M2 phenotype mouse BMDM cells assessed as reprogramming to M1 phenotype by measuring downregulation of IL-10 level at 10 nM incubated for 24 hrs by ELISA; assay type: functional, cell-based
BMDM [6] = assay: Induction of macrophage repolarization in FR-beta expressing IL-4 differentiated M2 phenotype mouse BMDM cells assessed as reprogramming to M1 phenotype by measuring upregulation of IL-6 level at 10 nM incubated for 24 hrs by ELISA; assay type: functional, cell-based
BMDM [7] = assay: Induction of macrophage repolarization in FR-beta expressing IL-4 differentiated M2 phenotype mouse BMDM cells assessed as reprogramming to M1 phenotype by measuring upregulation of iNOS expression at 10 nM incubated for 24 hrs by western blot analysis; assay type: functional, cell-based
BMDM [8] = assay: Induction of macrophage repolarization in FR-beta expressing IL-4 differentiated M2 phenotype mouse BMDM cells assessed as reprogramming to M1 phenotype by measuring TNF-alpha level at 10 nM incubated for 24 hrs by ELISA; assay type: functional, cell-based
BMDM [9] = assay: Induction of macrophage repolarization in FR-beta expressing IL-4 differentiated M2 phenotype mouse BMDM cells assessed as reprogramming to M1 phenotype by measuring upregulation of TLR7 mRNA expression at 10 nM incubated for 24 hrs by RT-qPCR analysis; assay type: functional, cell-based
BMDM [10] = assay: Induction of macrophage repolarization in FR-beta expressing IL-4 differentiated M2 phenotype mouse BMDM cells assessed as reprogramming to M1 phenotype by measuring downregulation of CD206 mRNA expression at 10 nM incubated for 24 hrs by RT-qPCR analysis; assay type: functional, cell-based
BMDM [11] = assay: Induction of macrophage repolarization in FR-beta expressing IL-4 differentiated M2 phenotype mouse BMDM cells assessed as reprogramming to M1 phenotype by measuring downregulation of Arg1 mRNA expression at 10 nM incubated for 24 hrs by RT-qPCR analysis; assay type: functional, cell-based
BMDM [12] = assay: Induction of macrophage repolarization in FR-beta expressing IL-4 differentiated M2 phenotype mouse BMDM cells assessed as reprogramming to M1 phenotype by measuring downregulation of IL-10 mRNA expression at 10 nM incubated for 24 hrs by RT-qPCR analysis; assay type: functional, cell-based
BMDM [13] = assay: Induction of macrophage repolarization in FR-beta expressing IL-4 differentiated M2 phenotype mouse BMDM cells assessed as reprogramming to M1 phenotype by measuring upregulation of IL-6 mRNA expression at 10 nM incubated for 24 hrs by RT-qPCR analysis; assay type: functional, cell-based
BMDM [14] = assay: Induction of macrophage repolarization in FR-beta expressing IL-4 differentiated M2 phenotype mouse BMDM cells assessed as reprogramming to M1 phenotype by measuring upregulation of iNOS mRNA expression at 10 nM incubated for 24 hrs by RT-qPCR analysis; assay type: functional, cell-based
BMDM [15] = assay: Induction of macrophage repolarization in FR-beta expressing IL-4 differentiated M2 phenotype mouse BMDM cells assessed as reprogramming to M1 phenotype by measuring TNF-alpha mRNA expression at 10 nM incubated for 24 hrs by RT-qPCR analysis; assay type: functional, cell-based
4T1 [16] = assay: Cytotoxicity against mouse 4T1 cells assessed as reduction in cell viability at >10 uM incubated for 24 hrs by CCK-8 assay; assay type: toxicity, cell-based; settings: 4t1, 24 h
[17] = Cytotoxicity against mouse BMDM cells assessed as reduction in cell viability at >10 uM incubated for 24 hrs by CCK-8 assay; assay type: toxicity, cell-based
HUVEC [18] = assay: Cytotoxicity against human HUVEC cells assessed as reduction in cell viability at >10 uM incubated for 24 hrs by CCK-8 assay; assay type: toxicity, cell-based
4T1 [19] = assay: Antitumor activity against mouse 4T1 cells xenografted in BALB/c mouse assessed as inhibition of tumor growth at 0.333 mg/kg, iv qd for 14 days and measured every day by digital caliper analysis; assay type: functional, organism-based; settings: time 14.0 day
[20] = Toxicity against BALB/c mouse xenografted with mouse 4T1 cells assessed as decrease in body weight at 0.333 mg/kg, iv qd for 14 days and measured every day; assay type: organism-based; settings: in vivo, 336 h, time 14 day
4T1 [21] = assay: Antitumor activity against mouse 4T1 cells xenografted in BALB/c mouse assessed as lifespan of animal's survival at 0.333 mg/kg, iv qd for 14 days; assay type: functional; settings: time 14 day
Mus musculus [22] = assay: In vivo repolarization of macrophages from M2 phenotype to M1 phenotype in BALB/c mouse xenografted with mouse 4T1 cells assessed as increase in M1 (F4/80+CD11b+CD86+) to M2 (F4/80+CD11b+CD206+) macrophage ratio in tumor at 0.333 mg/kg, iv qd for 14 days by flow cytometry; assay type: functional, organism-based; settings: time 14.0 day
[23] = Toxicity against BALB/c mouse xenografted with mouse 4T1 cells assessed as heightened inflammatory response in lung at 0.333 mg/kg, iv qd for 14 days by Hematoxylin-Eosin staining based analysis; assay type: organism-based; settings: in vivo, 336 h, time 14 day
[24] = Toxicity against BALB/c mouse assessed as increase in IL-6 level in plasma at 20 ug, iv measured after 2 hrs by ELISA; assay type: organism-based; settings: in vivo, dose 20 µg
[25] = Toxicity against BALB/c mouse assessed as increase in TNF-alpha level in plasma at 20 ug, iv measured after 2 hrs by ELISA; assay type: organism-based; settings: in vivo, dose 20 µg
[26] = Stability of the compound in mouse plasma at 5 uM and measured at 37 degC and for up to 12 hrs by HPLC analysis; assay type: ADME, cell-free; settings: read-out: Stability
[27] = Stability of the compound in PBS measured at 4 degC and for 15 days; assay type: physicochemical; settings: time 15 day, read-out: Stability
[28] = Prodrug release assessed as IMDQ-SH formation in presence of 10 mM GSH and measured within 1 hr by HPLC analysis; assay type: ADME
[29] = Prodrug release assessed as IMDQ formation in presence of 10 mM GSH and measured after 1 to 8 hrs by HPLC analysis; assay type: ADME; settings: time 1-8 hrs
4T1 [30] = assay: Cytotoxicity against mouse 4T1 cells assessed as reduction in cell viability incubated for 24 hrs by CCK-8 assay; assay type: toxicity, cell-based; settings: 4t1, 24 h
[31] = Cytotoxicity against mouse BMDM cells assessed as reduction in cell viability incubated for 24 hrs by CCK-8 assay; assay type: toxicity, cell-based
HUVEC [32] = assay: Cytotoxicity against human HUVEC cells assessed as reduction in cell viability incubated for 24 hrs by CCK-8 assay; assay type: toxicity, cell-based
4T1 [33] = assay: Antitumor activity against mouse 4T1 cells xenografted in BALB/c mouse assessed as inhibition of tumor growth at 1 mg/kg, iv qd for 14 days and measured every day by digital caliper analysis; assay type: functional, organism-based; settings: time 14.0 day
[34] = Toxicity against BALB/c mouse xenografted with mouse 4T1 cells assessed as effect on body weight at 1 mg/kg, iv qd for 14 days and measured every day; assay type: organism-based; settings: in vivo, 336 h, time 14 day
4T1 [35] = assay: Antitumor activity against mouse 4T1 cells xenografted in BALB/c mouse assessed as lifespan of animal's survival at 1 mg/kg, iv qd for 14 days; assay type: functional; settings: time 14 day
Mus musculus [36] = assay: In vivo repolarization of macrophages from M2 phenotype to M1 phenotype in BALB/c mouse xenografted with mouse 4T1 cells assessed as increase in M1 (F4/80+CD11b+CD86+) to M2 (F4/80+CD11b+CD206+) macrophage ratio in tumor at 1 mg/kg, iv qd for 14 days by flow cytometry; assay type: functional, organism-based; settings: time 14.0 day
Mus musculus [37] = assay: In vivo transition from anti-inflammatory to pro-inflammatory phenotypes in BALB/c mouse xenografted with mouse 4T1 cells assessed as decrease in proportion of Ly6C+ and Ly6G+ cells within CD45+ population at 1 mg/kg, iv qd for 14 days by flow cytometry; assay type: functional, organism-based; settings: time 14.0 day
Mus musculus [38] = assay: In vivo transition from anti-inflammatory to pro-inflammatory phenotypes in BALB/c mouse xenografted with mouse 4T1 cells assessed as upregulation in proportion of CD8+ cells at 1 mg/kg, iv qd for 14 days by flow cytometry; assay type: functional, organism-based; settings: time 14.0 day
Mus musculus [39] = assay: In vivo transition from anti-inflammatory to pro-inflammatory phenotypes in BALB/c mouse xenografted with mouse 4T1 cells assessed as CD4+ cells population at 1 mg/kg, iv qd for 14 days by flow cytometry; assay type: functional, organism-based; settings: time 14.0 day
[40] = Toxicity against BALB/c mouse xenografted with mouse 4T1 cells assessed as pathological changes in heart at 1 mg/kg, iv qd for 14 days by Hematoxylin-Eosin staining based analysis; assay type: organism-based; settings: in vivo, 336 h, time 14 day
[41] = Toxicity against BALB/c mouse xenografted with mouse 4T1 cells assessed as pathological changes in liver at 1 mg/kg, iv qd for 14 days by Hematoxylin-Eosin staining based analysis; assay type: organism-based; settings: in vivo, 336 h, time 14 day
[42] = Toxicity against BALB/c mouse xenografted with mouse 4T1 cells assessed as pathological changes in spleen at 1 mg/kg, iv qd for 14 days by Hematoxylin-Eosin staining based analysis; assay type: organism-based; settings: in vivo, 336 h, time 14 day
[43] = Toxicity against BALB/c mouse xenografted with mouse 4T1 cells assessed as pathological changes in kidney at 1 mg/kg, iv qd for 14 days by Hematoxylin-Eosin staining based analysis; assay type: organism-based; settings: in vivo, 336 h, time 14 day
[44] = Toxicity against BALB/c mouse xenografted with mouse 4T1 cells assessed as heightened inflammatory response in lung at 1 mg/kg, iv qd for 14 days by Hematoxylin-Eosin staining based analysis; assay type: organism-based; settings: in vivo, 336 h, time 14 day

SMILES: CCCCc1nc2c(N)nc3ccccc3c2n1Cc1ccc(CN)cc1
- Activity (BMDM [1]): Active
- Activity (BMDM [2]): Active
- Activity (BMDM [3]): Active
- Activity (BMDM [4]): Active
- Activity (BMDM [5]): Active
- Activity (BMDM [6]): Active
- Activity (BMDM [7]): Active
- Activity (BMDM [8]): inactive
- Activity (BMDM [9]): Active
- Activity (BMDM [10]): Active
- Activity (BMDM [11]): Active
- Activity (BMDM [12]): Active
- Activity (BMDM [13]): Active
- Activity (BMDM [14]): Active
- Activity (BMDM [15]): inactive
- Activity (4T1 [16]): Toxic
- Activity [17]: Toxic
- Activity (HUVEC [18]): Toxic
- Activity (4T1 [19]): Active; Diminished Antitumor Efficacy Compared To Fgt-1 To 4 Observed
- Activity [20]: Toxic
- Survival (4T1 [21]): 27 days
- Activity (Mus musculus [22]): inactive
- Activity [23]: Toxic
- Activity [24]: Toxic
- Activity [25]: Toxic

SMILES: CCCCc1nc2c(N)nc3ccccc3c2n1Cc1ccc(CNC(=O)OCCSSC[C@H](NC(=O)CC[C@H](NC(=O)c2ccc(CCCCc3cc4c(=O)[nH]c(N)nc4[nH]3)cc2)C(=O)O)C(=O)O)cc1
- remaining at 12 h, 5 µM [26]: 95%
- remaining at 360 h [27]: > 95%
- Drug metabolism [28]: metabolite_detected
- Drug metabolism [29]: metabolite_detected
- Activity (BMDM [1]): Active
- Activity (BMDM [2]): Active
- Activity (BMDM [3]): Active; More Pronounced Effect Compared To Fgt-2,3 Observed
- Activity (BMDM [4]): Active; More Pronounced Effect Compared To Fgt-2,3 Observed
- Activity (BMDM [5]): Active; More Pronounced Effect Compared To Fgt-2 Observed
- Activity (BMDM [6]): Active; More Pronounced Effect Compared To Fgt-2 Observed
- Activity (BMDM [7]): Active; More Pronounced Effect Compared To Fgt-2,3 Observed
- Activity (BMDM [8]): inactive
- Activity (BMDM [9]): Active
- Activity (BMDM [10]): Active; More Pronounced Effect Compared To Fgt-2,3 Observed
- Activity (BMDM [11]): Active; More Pronounced Effect Compared To Fgt-2,3 Observed
- Activity (BMDM [12]): Active; More Pronounced Effect Compared To Fgt-2 Observed
- Activity (BMDM [13]): Active; More Pronounced Effect Compared To Fgt-2 Observed
- Activity (BMDM [14]): Active; More Pronounced Effect Compared To Fgt-2,3 Observed
- Activity (BMDM [15]): inactive
- Activity (4T1 [30]): Non-toxic
- Activity [31]: Non-toxic
- Activity (HUVEC [32]): Non-toxic
- Activity (4T1 [33]): Active; Most Pronounced Effect Compared To Fgt-1,2,3 Observed
- Activity [34]: Non-toxic
- Survival (4T1 [35]): 35 days
- Activity (Mus musculus [36]): Active
- Activity (Mus musculus [37]): Active
- Activity (Mus musculus [38]): Active
- Activity (Mus musculus [39]): inactive
- Activity [40]: Non-toxic
- Activity [41]: Non-toxic
- Activity [42]: Non-toxic
- Activity [43]: Non-toxic
- Activity [44]: Non-toxic
- Activity [24]: Non-toxic
- Activity [25]: Non-toxic
